Assay [1] concerns reserpine-inducd hypothermia in male mice (NMRI strain). The experiment in a line: Inhibition of reserpine-induced hypothermia in mice (antidepressive action). The class given is in vivo. Particulars: oral; for effectiveness higher than that of imipramine, factor: ED 50 relative to imipramine; for ED50: Mus musculus, 60 minutes before reserpine 2.15 mg/kg s.c., dose inhibiting reserpine-induced hypothermia by 50%, read-out: Antidepressive action ED 50. The method, then:
The antidepressive activity of the substances according to the invention was studied using the following model:
Antidepressant substances inhibit this hypothermic effect, the degree of inhibition depending on the dose. The test substances were administered orally 60 minutes before the reserpine was administered.
The dose which inhibits reserpine-inducd hypothermia by 50%, ie. ED 50, is determined from the linear regression between log dose (mg/kg) and the relative decrease in the hypothermic effect.

For assay [2], the system named is tonic spasms induced by electroshock in female mice (NMRI strain). Nature of the assay: Inhibition of electroshock-induced tonic spasms in mice (anticonvulsive action). The class given is in vivo. The following applies: oral; for ED50: Mus musculus, 1 h, 60 minutes before electroshock, dose inhibiting tonic spasms in 50% of the animals, n/dose=8, read-out: Anticonvulsive action ED 50. The method, then:
The anticonvulsive action was measured on female mice (NMRI strain) having a weight of 22-26 g. Tonic spasms were induced by electroshock via ear electrodes. Stimulus data: a series of square-wave pulses 4.64 ms in duration and 14.7 mA in amplitude; frequency 100 Hz; duration of series 0.2 sec.
The electroshock was administered 60 minutes after the oral administration of the test compounds, and the appearance of tonic spasms was counted. n/dose=8. The ratios between the effectiveness (% protected animals) and log dose were calculated by probit analysis. ED 50 is the dose which inhibits the tonic spsms in 50% of the animals.

Where a name gives a salt, the structure may show the parent alone.

Regarding `CN1CC[C@@H]2c3ccccc3[C@H](c3ccccc3)C[C@@H]21` (relative stereo) [Example 1, (±)-3aS(R),5S(R),9bR(S)-3-Methyl-5-phenyl-1,2,3a,4,5,9b-hexahydro-3H -benz[e]indole hydrochloride], in assay [1], the “effectiveness higher than that of imipramine, factor” value is listed as “about 45” and the ED50 amounted to 0.082 mg/kg. For the same compound, in assay [2], the ED50 amounted to 1.1 mg/kg and the “anticonvulsive effectiveness compared with phenytoin (in words)” value is “equalled or substantially exceeded”.

Regarding `CN1CC[C@H]2c3ccccc3[C@H](c3ccccc3)C[C@@H]21` (relative stereo) [Example 2, (±)-3aR(S),5R(S),9bR(S)-3-Methyl-5-phenyl-1,2,3a,4,5,9b-hexahydro-3H-benz[e]indole], in assay [1], the ED50 worked out at 5.01 mg/kg.

With `CCN1CC[C@@H]2c3ccccc3[C@H](c3ccccc3)C[C@@H]21` (relative stereo) [Example 5, (±)-3aS(R),5S(R),9bR(S)-3-ethyl-5-phenyl-1,2,3a,4,5,9b-hexahydro-3H-benz[e]indole hydrochloride], the ED50 in assay [1] was 0.14 mg/kg; in assay [2] it was roughly 100 mg/kg.

`CCN1CC[C@H]2c3ccccc3[C@H](c3ccccc3)C[C@@H]21` (relative stereo) [Example 6, (±)-3aR(S),5R(S),9bR(S)-3-Ethyl-5-phenyl-1,2,3a,4,5,9b-hexahydro-3H-benz[e]indole hydrochloride]: the ED50 in assay [1] stood at 1.61 mg/kg. For the same compound, in assay [2], the ED50 is 8.81 mg/kg and the “anticonvulsive effectiveness compared with phenytoin (in words)” value was “equalled or substantially exceeded”.

As to `CCCN1CC[C@@H]2c3ccccc3[C@H](c3ccccc3)C[C@@H]21` (relative stereo) [Example 7, (±)-3aS(R),5S(R),9bR(S)-3-n-propyl-5-phenyl-1,2,3a,4,5,9b-hexahydro-3H-benz[e]indole hydrochloride], the figures for the ED50 in assay [1] and in assay [2] were 0.26 mg/kg and 11.9 mg/kg, respectively.

Regarding `CN1CC[C@@H]2c3ccccc3[C@H](c3ccccc3)C[C@@H]21` [Example 4, (+)-3aS,5S,9bR-3-Methyl-5-phenyl-1,2,3a,4,5,9b-hexahydro-3H-benzo[e]indole], in assay [1], the “effectiveness higher than that of imipramine, factor” value is on record as “about 45”. The results for the ED50 in assay [1] and in assay [2] were 0.087 mg/kg and roughly 46.4 mg/kg, respectively.

On to `CN(C)CCCN1c2ccccc2CCc2ccccc21` [imipramine, reference compound], for which the ED50 in assay [1] came to 3.82 mg/kg.

Turning to `O=C1NC(=O)C(c2ccccc2)(c2ccccc2)N1` [phenytoin, reference compound], the ED50 in assay [2] was determined as 14.3 mg/kg.
